Laboratory results published in publication PMC8145938, “Triphenilphosphonium Analogs of Chloramphenicol as Dual-Acting Antimicrobial and Antiproliferating Agents” (Antibiotics, 2021).

Assays:
[1] = system: Escherichia coli C600recA naI; test: MIC determination, CHL resistant E. coli strains; assay type: cell-based; conditions: C600RECANAI
Description: (§1) Standard laboratory strains of Bacillus subtilis subs. subtilis Cohn 1872, stains BR151, and 168, Staphylococcus aureus subsp. aureus Rosenbach 1884 strains JCM 2151 and entry MC#144 (from the Microorganisms Collection of the Moscow State University), Listeria monocytogenes Pirie 1940, Mycobacterium smegmatis Lehmann and Neumann 1899 (MC#377), and Escherichia coli Castellani and Chalmers 1919, strain JW5503 (with the deletion of tolC gene), which are resistant to the chloramphenicol strains, J53rif, C600rif/pIB55-1, C600rif/pIP162-1, and C600recA naI, were used.
(§2) The MICs for CAM-Cn-TPP and Cn-TPP were determined by Mueller-Hinton broth microdilution, as recommended by CLSI in the Methods for Dilution Antimicrobial Susceptibility Tests for Bacteria that Grow Aerobically, Approved Standard, 9th ed., CLSI document M07-A9, using in-house-prepared panels. The compounds were diluted in a 96-well microtiter plate to final concentrations ranging from 0.5 to 360 μM in a 250-µL aliquot of the bacterial suspension, followed by incubation at 37 °C or 30 °C for 18 h. […] The bacterial growth was observed visually alongside OD measurements. The experiments were carried out in triplicate.

[2] = system: Escherichia coli C600rif/pIB55-1; test: MIC determination, CHL resistant E. coli strains; assay type: cell-based
Description: as §1, §2

[3] = system: Escherichia coli C600rif/pIP162-1; test: MIC determination, CHL resistant E. coli strains; assay type: cell-based
Description: as §1, §2

Escherichia coli J53rif = test: MIC determination, CHL resistant E. coli strains; assay type: cell-based
Description: as §1, §2

B. subtilis cells = test: membrane potential by DiS-C3-(5) fluorescence; assay type: cell-based, Bacillus subtilis
Description: Thus, we further examined the effect of CAM-Cn-TPP on the bacterial membrane potential of B. subtilis. In particular, the membrane potential of B. subtilis can be estimated from the fluorescence of the potential-sensitive dye, DiS-C3-(5), by measuring the changing fluorescence. The potential-dependent accumulation of the dye inside the bacterial cell causes quenching and leads to a decrease in fluorescence. Under the influence of substances that reduce the membrane potential, the dye is released and the fluorescence increases. […] Therefore, the action of CAM-Cn-TPP may have a double effect on bacterial cells and be based on the depolarization of the bacterial membrane by analogy with the mechanism of action of Cn-TPP [17].
The membrane potential of B. subtilis was estimated by measuring the fluorescence of the potential-dependent probe, DiS-C3-(5). B. subtilis from the overnight culture were seeded into a fresh LB medium, followed by growth for […], until reaching the optical density of 0.8 at 600 nm. Then, the bacteria were diluted 20-fold in a buffer containing 100 mM of KCl and 10 mM of Tris, pH 7.4. The fluorescence was measured at 670 nm (excitation at 630 nm) using a Fluorat-02-Panorama fluorimeter.

[4] = system: MDA-MB-231 and BT-549 TNBC-sensitive and chemoresistant cells; test: cancer cell proliferation / viability assay (MTT); assay type: cell-based; conditions: 3 days treatment
Description: We recently provided in vivo [67] and in vitro [68] evidence that certain bactericidal antibiotics suppress tumor growth by inducing mitochondrial dysfunction. […] These cells differ from the corresponding parental cells and display a different response to the same microenvironmental stimuli, allowing them to reduce their proliferating rate and survive chemotherapeutic treatment. Here, we tested the abovementioned CAM-TPP derivatives on chemoresistant triple negative breast cancer (TNBC) cell models, as well as on corresponding CSC-like spheroid cells. We created several relevant models based on TNBC cell lines, particularly MDA-MB-231 and BT-549, to determine their resistance to cyclophosphamide. To create CSC-like cells, parental cells were resuspended in nonadherent conditions to form tumorspheres.
The MDA-MB-231 (RRID: CVCL_0062) and BT-549 (RRID: CVCL_1092) cell lines were purchased from ATCC and cultured in DMEM/F12 (Gibco, Life Technologies, 31330-038) supplemented with 10% FBS, 1% Pen-Strep, 1% Sodium Pyruvate, and 1% L-glutamine. Chemoresistant cell lines were established with continuous treatment for 6 months with the anticancer therapeutic agent, cyclophosphamide (Rcyclo), as previously described. These cell lines were authenticated using short tandem repeat (STR) profiling within the last three years. […] The relative numbers of tumourspheres per well were counted manually. […]
The survival assay was performed essentially as described earlier. […] The absorbance was measured at 570 nm in Bio Spec 1601, Shimadzu spectrometer. […] The results were expressed as the means ± SEM. The data were analyzed using the GraphPad Prism 7 PRIZM computer software under the license of the Statistical Department (Vall’ d Hebron Hospital, Barcelona, Spain).

| Structure (SMILES) | MIC [1] [µM] | MIC [2] [µM] | MIC [3] [µM] | MIC (Escherichia coli J53rif) [µM] | effect on membrane potential (B. subtilis cells; 10 µM) | effect on membrane potential (B. subtilis cells; submicromolar concentrations) | effect on proliferation of TNBC cell lines [4] |
| --- | --- | --- | --- | --- | --- | --- | --- |
| O=C(N[C@H](CO)[C@H](O)c1ccc([N+](=O)[O-])cc1)C(Cl)Cl [CHL, chloramphenicol] | > 396 | > 396 | > 396 | > 396 |  |  |  |
| O=C(CCCCCCCCCC[P+](c1ccccc1)(c1ccccc1)c1ccccc1)NCCCC(=O)N[C@H](CO)[C@H](O)c1ccc([N+](=O)[O-])cc1 [CAM-C14-TPP, N-[(1R,2R)-1,3-dihydroxy-1-(4-nitrophenyl)propan-2-yl]-4-(triphenyl)phosphoniumundecanamidobutamide bromide] |  |  |  |  | caused a rapid drop in the membrane potential to the level observed with the channel-forming antibiotic gramicidin A | caused a decrease in the membrane potential of B. subtilis on a minute time scale | significantly reduced the proliferation of TNBC cell lines |
| O=C(CCCCCCCCCC[P+](c1ccccc1)(c1ccccc1)c1ccccc1)N[C@H](CO)[C@H](O)c1ccc([N+](=O)[O-])cc1 [CAM-C10-TPP, (N-{[(1R,2R)-1,3-dihydroxy-1-(4-nitrophenyl)propan-2-yl]amino}-11-oxoundecyl)(triphenyl)phosphonium bromide] | 107 | 90 | > 199 | 110 | caused a rapid drop in the membrane potential to the level observed with the channel-forming antibiotic gramicidin A | caused a decrease in the membrane potential of B. subtilis on a minute time scale | significantly reduced the proliferation of TNBC cell lines |
